From patent US20220395458A1, “PREVENTION OF VISIBLE PARTICLE FORMATION IN AQUEOUS PROTEIN SOLUTIONS” (Hoffmann-La Roche Inc., priority 2019, published 2022)

Assays:
[1] = Visible particles (Seidenader) after spiking FFA to glass leachable solutions; type: physicochemical; design: key to Visible particles: relative ranking to each other from less to most particle fromation (+, ++, +++); relative ranking to each other from less to most particle fromation (+, ++, +++); relative ranking to each other from less to most particle fromation (+, ++, +++); conditions: for Visible particles d0: d0 directly after spiking; for Visible particles: FFA below solubility limit, up to 7 days, triplicates
Description: Aqueous stock solutions were prepared in 0.02% PS20 (Croda. Edison, N.J., USA) at defined concentrations of (1) 5 mg/mL and (2) 12.5 mg/mL (lauric acid. Sigma-Aldrich/Merck. Darmstadt. Del.) or (1) 1.5 mg/mL and (2) 5 mg/mL (myristic acid, Sigma-Aldrich/Merck. Darmstadt. Del.) as previously described by Doshi et al.^6 The procedure was adapted that the FFA/PS20 stock solution was sterile filtered using 0.22 μm PVDF Steriflip filters (Merck Millipore. Darmstadt. Del.) before 1:10 dilution and subsequently homogenized without a magnetic stirrer using a Heidolph Rotamax 120 orbital shaker (Schwabach. Del.) at 100 rpm at 25° C., for 1 hour. After 1:500 dilution, the solution was homogenized for 1 hour at 25° C., before homogenization at 2-8° C., overnight, 12-40 μL of stock solution were used for spiking experiments yielding final FFA concentrations of (1) 10 μg/mL and (2) 25 μg/mL (lauric acid) or (1) 3 μg/mL and (2) 10 μg/mL (myristic acid). Dilutions with stock solutions 1 yield FFA concentration below their solubility limit, whereas stock solutions 2 act as positive control confirmed by the formation of visible particles. FFA concentrations were verified for selected by LC-MS samples acc. Honemann et al.^7
Representative mixtures of glass leachables were obtained from three different types of glass vials, e.g. Exp 33 and Exp51 (Schott A G, Müllheim, D E, and Schott North America Inc., N.Y. USA) in the 6 mL format, by three autoclavation cycles (121° C., 20 min) representing accelerate aging conditions. Vials were filled with 6 mL of either water for injection (WFI), 20 mM glycine solution pH 10 or a typical placebo solution used for protein formulations consisting of 20 mM Histidine/Histdine-HCl buffer pH 6.0, 10 mM Methionine, 240 mM sucrose (Ferro Pfanstiehl. Waukegan. Ill. USA), and 0.02% PS20. The pH of the glycine solutions was adapted after autoclavation with HCl to pH 6.0 and filtered through a 0.22 μm PVDF Sterivex filters (Merck Millipore. Darmstadt. Del.) Leachable concentrations were verified ICP-MS (Table 1) as described by Ditter et al.^8 Spiking experiments with FFA were performed in triplicates,
Samples were analyzed by visual inspection on a Seidenader V 90-T instrument (Seidenader Maschinenbau GmbH. Markt Schwaben. Del.) as previously described by Ditter et al.^9 and using a black/white panel according Ph. Eur. 2.9.20.^10 and classified as Many particles (>7). Few particles (4-7), or Practically free of particles (0-4) in E/P box, and Many particles (>10). Few particles (6-10). Essentially free of particles (1-5), or Free of particles (0) by Seidenader.
(§1) pH of all solutions was verified. Samples were visually inspected immediately after spiking and regularly for up to 7 days. Further characterization by HIAC, turbidity, FTIR, and SEM-EDX was performed on day 1 only. All samples were analyzed when equilibrated to room temperature (4 h).
Glass leachables were generated from different types of glass vials, e.g. Exp33 and Exp51 vials, with different matrix solutions including WFI, a glycine solution adjusted to pH 6, and a placebo solution representative for a mAb formulation. Defined amounts of myristic and lauric acid below their solubility limit were added to the solutions/mixtures of glass leachables and analyzed. Visible particles in Seidenader are summarized in Table 3 and were detected for all samples in contrast to various controls. Particle formation was dependent on the glass leachable solution and dependent on incubation time. […] An example for the dependency of particle formation on incubation time is provided in Table 3 for myristic acid in glass leachable solution from Exp51 vials/glycine solution. The example highlights the kinetics of particle formation with no particles directly after spiking and more than 10 particles at incubation day 5 and 7. For selected samples, particles were further characterized and identified by FTIR confirming the presence of free fatty acids. […]

[2] = Particle identification by FTIR; type: physicochemical; conditions: particle identification d1
Description: Particles >20 μm were further identified by Fourier transformed infrared spectroscopy (FTTIR) using a Nicolet™ iNTM10 Infrared Microscope (Thermo Fisher Scientific) by comparison to reference spectra. Samples were filtrated under laminar air flow through gold-coated polycarbonate filters (pore size 0.8 μm, diameter 13 mm, Sterlitech). Filter conditioning included few droplets of ethanol followed by 1 mL of particle-free water. After filtration of the samples, ˜1 mL of cooled particle-free water was used as a final washing step before analysis.
as §1
Glass leachables were generated from different types of glass vials, e.g. Exp33 and Exp51 vials, with different matrix solutions including WFI, a glycine solution adjusted to pH 6, and a placebo solution representative for a mAb formulation. Defined amounts of myristic and lauric acid below their solubility limit were added to the solutions/mixtures of glass leachables and analyzed. Visible particles in Seidenader are summarized in Table 3 and were detected for all samples in contrast to various controls. Particle formation was dependent on the glass leachable solution and dependent on incubation time. […] An example for the dependency of particle formation on incubation time is provided in Table 3 for myristic acid in glass leachable solution from Exp51 vials/glycine solution. The example highlights the kinetics of particle formation with no particles directly after spiking and more than 10 particles at incubation day 5 and 7. For selected samples, particles were further characterized and identified by FTIR confirming the presence of free fatty acids. FFA were not confirmed by FTIR for glass leachable solutions generated with WFI, which is linked to the time point of FTIR analysis at d1 and the late onset of particle formation for these samples. Placebo samples were not analyzed further by FTIR as the positive control was found negative attributed to the presence of additional 0.02% PS20, potentially solubilizing the FFA seeds. Characterization of the particles by SEM-EDX confirmed the presence of glass leachables, like Aluminium or silicon on the surface of the FFA particles. […] The spiking study highlights that mixtures of ‘real’ glass leachables lead to precipitation of FFA and particle formation in the visible range dependent on mixture and amount of glass leachables as well as dependent on incubation time, […]

[3] = Exp51 vials, 3xTS Glycine pH 6, samples 1-3
[4] = Exp51 vials, 3xTS Glycine pH 6, samples 1-3, listed as myristic acid
[5] = glass leachable solution Exp33 vials, 3xTS Placebo
[6] = glass leachable solution Exp33 vials, 3xTS WFI
[7] = glass leachable solution Exp51 vials, 3xTS Glycine pH 6
[8] = glass leachable solution Exp51 vials, 3xTS Placebo
[9] = glass leachable solution Exp51 vials, 3xTS WFI

Visible particles d0 [1, 3] | Visible particles d0 [1, 4] | Visible particles d1 ([1]; Exp51 vials, 3xTS Glycine pH 6, d1, samples 1-3) | Visible particles d5/7 [1, 3] | Visible particles d5/7 [1, 4] | Visible particles ([1]; glass leachable solution Exp33 vials, 3xTS Glycine pH 6) | FTIR ([2]; Exp33 vials, 3xTS Glycine pH 6) | SMILES | Visible particles [1, 5] | Visible particles [1, 6] | Visible particles [1, 7] | Visible particles [1, 8] | Visible particles [1, 9] | FTIR ([2]; Exp51 vials, 3xTS Glycine pH 6) | FTIR ([2]; Exp33 vials, 3xTS WFI)
1-5 particles | no particles | 1-5 particles | >10 particles | more than 10 particles | + | FFA | CCCCCCCCCCCCCC(=O)O [Myristic acid, myristic acid] | + | + | +++ | + | + | FFA | –
– | – | – | – | – | – | – | CCCCCCCCCCCC(=O)O [Lauric acid, lauric acid] | +++ | + | ++ | +++ | ++ | FFA | FFA
